Experimental data from US20260356824A1, “COMPOUNDS FOR TREATING FIBROTIC DISEASES” (Meta-Immue Inc., priority 2023, published 2026).

Tests used:
A2058 cells = experiment: Chemotaxis Assay (LPA-induced migration of A2058 cells); assay type: cell-based; details: Homo sapiens, 4 to 8 hours, crystal violet 590 nm
Description: For monitoring the migration of cells, Neuroprobe ChemoTx® System plates ([…], 5.7 mm diameter sites; Gaithersburg, MD, USA) were utilized. To induce cell migrations, a concentration of […] or vehicle in DMEM were loaded to the bottom chamber. A total of 15,000 A2058 cells, which were starved for 24 hr following treated with test compounds or vehicle, were then applied to the upper membrane coated with 0.001% fibronectin. The plate was incubated for 4 to 8 hours to allow cell migration. Following incubation, the plate was dissembled, and the migrated cells were visualized by crystal violet staining. The stained area with crystal violet was quantified by measuring the absorbance at 590 nm and the relative percentage of the control was calculated.

hLPAR1 = biological target: T1, hLPAR1 (Homo sapiens, UniProt Q92633); experiment: Ca2+ Flux Assay (B103 cells stably expressing hLPAR1); assay type: cell-based; details: LPA-induced calcium release, Fura-2 AM, compound 20 min at RT
T1 construct: expressed in transfected cells
T1 sequence (Q92633 whole entry): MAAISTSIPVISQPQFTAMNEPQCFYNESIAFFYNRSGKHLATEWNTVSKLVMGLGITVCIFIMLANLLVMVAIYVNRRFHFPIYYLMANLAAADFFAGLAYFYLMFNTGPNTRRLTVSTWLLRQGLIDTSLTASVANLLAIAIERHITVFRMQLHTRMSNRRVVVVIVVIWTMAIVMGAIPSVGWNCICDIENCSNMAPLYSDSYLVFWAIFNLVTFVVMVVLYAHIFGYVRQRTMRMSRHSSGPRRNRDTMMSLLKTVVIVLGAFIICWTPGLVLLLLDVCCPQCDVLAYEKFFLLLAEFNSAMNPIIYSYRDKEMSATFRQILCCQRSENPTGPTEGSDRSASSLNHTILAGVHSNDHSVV
Description: B103 cells stably expressing hLPAR1 were seeded at a density of 1.0×10^5 cells per well in clear flat-bottom black 96-well plates and incubated overnight in complete media. The following day, the cells were pre-incubated in serum-free media for 2 hours prior to ensure cellular equilibration. For the loading a calcium-sensitive fluorescent dye, the cells were treated with a concentration of 5 μM Fura-2 AM dye (Sigma, F1225) in Hank's buffered salt solution (HBSS) supplemented with 20 mM HEPES, […], and 0.3% fatty-acid-free bovine serum albumin for 40 minutes at room temperature (RT). Test compounds, prepared in DMSO, were then added to each well and incubated for 20 minutes at RT. To induce calcium release, a concentration of […] in HBSS supplemented with 20 mM HEPES, and 0.3% fatty-acid-free bovine serum albumin was introduced. Intracellular calcium mobilization was subsequently quantified by monitoring the fluorescence intensity using the Spark® multimode microplate reader (TECAN).

IC50 (A2058 cells) [nM] | IC50 (hLPAR1) [nM] | Compound
< 100 | 10 to 200 | Cc1ccccc1[C@@H](C)OC(=O)Nc1c(C2CCN(c3ccc(C4(C(=O)O)CC4)cc3)CC2)cnn1C [Compound 34]
100 to 500 | ≥ 3000 | Cc1cc(NC(=O)O[C@H](C)c2ccccc2)c(C2CCN(c3ccc(C4(C(=O)O)CC4)cc3)CC2)s1 [Compound 91]
500 to 5000 | < 10 | Cc1nnn(C2CCN(c3ccc(C4(C(=O)O)CC4)cc3)CC2)c1NC(=O)O[C@H](C)c1ccccc1Cl [Compound 51]
< 100 | < 10 | Cc1noc(C2CCN(c3ccc(C4(C(=O)NS(=O)(=O)CC5(C(=O)O)CC5)CC4)cc3)CC2)c1NC(=O)O[C@H](C)c1ccccc1 [Compound 82, 1-[({[1-(4-{4-[3-methyl-4-({[(1R)-1-phenylethoxy]carbonyl}amino)-1,2-oxazol-5-yl]piperidin-1-yl}phenyl)cyclopropyl]formamido}sulfonyl)methyl]cyclopropane-1-carboxylic acid]
500 to 5000 | 10 to 200 | Cc1noc(C2CCN(c3ccc(C4(C(=O)O)CC4)cc3)CC2)c1NC(=O)OCC1CC1 [Compound 5]
100 to 500 | < 10 | C[C@@H](OC(=O)Nc1c(C2CCN(c3ccc(C4(C(=O)NS(=O)(=O)CC5(C(=O)O)CC5)CC4)cc3)CC2)nnn1C)c1ccccc1Cl [Compound 41]
< 100 | < 10 | Cc1noc(C2CCN(c3ccc(C4(C(=O)NS(=O)(=O)C(F)(F)C(N)=O)CC4)cc3)CC2)c1NC(=O)O[C@H](C)c1ccccc1 [Compound 66]
500 to 5000 | 10 to 200 | Cc1noc(C2CCN(c3ccc(C4(C(=O)O)CC4)cc3)CC2)c1Nc1cccc(-c2ccccc2)n1 [Compound 49]
500 to 5000 | 200 to 3000 | Cc1noc(C2CCN(c3ccc(C4(C(=O)O)CC4)cc3)CC2)c1NC(=O)OC1C2C[C@H]3C[C@@H](C2)C[C@@H]1C3 (some centres unmarked) [Compound 97]
< 100 | 10 to 200 | Cc1nsc(C2CCN(c3ccc(C4(C(=O)O)CC4)cc3)CC2)c1NC(=O)O[C@H](C)c1ccccc1Cl [Compound 42]
≥ 5000 | 200 to 3000 | Cc1noc(C2CCN(c3ccc(C4(C(=O)O)CC4)cc3)CC2)c1NC(=O)[C@H](O)c1ccccc1 [Compound 32]
500 to 5000 | 10 to 200 | Cc1noc(C2CCN(c3ccc(C4(C(=O)O)CC4)cc3)CC2)c1NC(=O)O[C@H](C)c1ccccc1C(C)(C)F [Compound 30]
< 100 | < 10 | Cc1noc(C2CCN(c3ccc(C4(C(=O)OCc5oc(=O)oc5C)CC4)cc3)CC2)c1NC(=O)O[C@H](C)c1ccccc1 [Compound 14]
100 to 500 | 10 to 200 | Cc1noc(C2CCN(c3ccc(C4(C(=O)NS(C)(=O)=O)CC4)cc3)CC2)c1NC(=O)O[C@H](C)c1ccccc1Cl [Compound 11]
100 to 500 | < 10 | Cc1noc(C2CCN(c3ccc(C4(C(=O)NS(=O)(=O)C5(CC(=O)O)CC5)CC4)cc3)CC2)c1NC(=O)O[C@H](C)c1ccccc1 [Compound 76]
< 100 | < 10 | Cc1noc(C2CCN(c3ccc(C4(C(=O)NS(=O)(=O)CC5(C)COC5)CC4)cc3)CC2)c1NC(=O)O[C@@H](C)c1ccccc1 [Compound 81]
500 to 5000 | 10 to 200 | Cc1noc(C2CCN(c3ccc(C4(C(=O)O)CC4)cc3)CC2)c1NC(=O)OC(C)C1CCCCC1 (centres unmarked) [Compound 96]
100 to 500 | < 10 | C[C@@H](OC(=O)Nc1c(C2CCN(c3ccc(C4(C(=O)NS(=O)(=O)C(C)(C)C(=O)O)CC4)cc3)CC2)nnn1C)c1ccccc1 [Compound 56]
< 100 | < 10 | Cc1noc(C2CCN(c3ccc(C4(C(=O)NS(=O)(=O)C5(CO)CC5)CC4)cc3)CC2)c1NC(=O)O[C@H](C)c1ccccc1 [Compound 77]
